In general, pKi refers to the negative decadic logarithm of the Ki, by convention in mol/L.

pKi: −log10 of the molar value.

For one data set, the target named is D2 (Homo sapiens (Human), UniProt P14416). As to the kind of experiment: D2 binding assay ([3H] 7-OH-DPAT, HEK293 D2L membranes). To be noted: numeric values. As for the experimental part:
D2 Binding Assay Protocol
The testing compounds were diluted with DMSO, starting at 2 mM, with 8-points and 5-fold serial dilutions. droperidol was diluted with DMSO, starting at 0.2 mM, with 8-points and 4-fold serial dilutions.
1 μL of a compound of the present disclosure and the reference compound (Table O) was transferred to an assay plate. 1 μL of droperidol was transferred to an assay plate according to the plate map for nonspecific binding (Low control: LC). 1 μL of DMSO was transferred to an assay plate according to the plate map for total binding (High control: HC). Following a plate map, 100 μL of the membrane stock solutions and radio ligand were added into the plate. The plates were sealed and shaken with 300 rpm.
Unifilter-96 GF/C filter plates were soaked with 50 μL of 0.3% PEI per well for about 0.5 hours at room temperature. When the binding assays were complete, the reaction mixture was filtered through the GF/B filter plates using Perkin Elmer Filtermate Harvester, and each plate was washed 4 times with cold wash buffer. The filter plates were dried for 1 hour at 50° C. After drying, the bottom of the filter plate wells were sealed using Perkin Elmer Unifilter-96 backing seal tape. 50 μL of Perkin Elmer Microscint 20 cocktail was added. The top of the filter plates were sealed with Perkin Elmer TopSeal-A sealing film.
^3H trapped on filters were counted using Perkin Elmer MicroBeta2 Reader. Inhibition constants were calculated using the following equation: […]
The data was analyzed using Prism 5. The model used was “log(inhibitor) vs. response—Variable slope” to fit the data and calculate IC50. The IC50 was then converted to Ki using the following equation: Ki=IC50/(1+L/Kd), wherein L is the radioligand concentration in the reaction system; Kd is the affinity of radioligand to the receptor. As shown in Table Q Compound No. 7 has a lower affinity for D2 when compared to Compounds A-2, A-3, A-4, and A-5.

Data set [1] is described as follows: Human clearance and half-life projections (allometric scaling from monkey clearance). As for the experimental part:
The biological activity of the compounds of the present disclosure may be determined utilizing projected human clearance (CL) and half-life in humans. An allometric scaling method, using a single species scaling from monkey clearance was used to project clearance. Human volume of distribution (Vd) was projected from animal Vd, adjusted for differences in plasma protein binding and assuming similar unbound Vd across species. Human half-life (T1/2) was calculated based on a one-compartmental model, using a relationship of T1/2=0.693×(predicted Vd/predicted CL).
An allometric scaling method, using a single species scaling from monkey clearance was used to project clearance. Human volume of distribution (Vd) was projected from animal Vd, adjusted for differences in plasma protein binding and assuming similar unbound Vd across species. Human half-life (T1/2) was calculated based on a one-compartmental model, using a relationship of T1/2=0.693×(predicted Vd/predicted CL).

D2, sequence (P14416 whole entry): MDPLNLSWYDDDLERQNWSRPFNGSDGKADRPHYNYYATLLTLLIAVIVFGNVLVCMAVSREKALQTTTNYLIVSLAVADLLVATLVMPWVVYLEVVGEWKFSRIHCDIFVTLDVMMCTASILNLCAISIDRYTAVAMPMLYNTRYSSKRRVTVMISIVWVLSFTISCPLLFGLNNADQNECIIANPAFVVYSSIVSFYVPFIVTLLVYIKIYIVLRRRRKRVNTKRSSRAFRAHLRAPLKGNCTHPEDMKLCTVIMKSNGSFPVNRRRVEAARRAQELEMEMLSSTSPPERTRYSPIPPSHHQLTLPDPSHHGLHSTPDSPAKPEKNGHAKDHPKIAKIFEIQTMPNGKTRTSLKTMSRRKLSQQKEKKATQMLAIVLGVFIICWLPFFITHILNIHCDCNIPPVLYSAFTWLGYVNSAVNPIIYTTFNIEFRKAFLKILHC

Take `Cc1ccc2c(c1)Oc1cc(C)ccc1C(N1CCN(CC(C)(C)C(=O)O)CC1)=N2` [Compound No. 7, 3-(4-(3,7-dimethyldibenzo[b,f][1,4]oxazepin-11-yl)piperazin-1-yl)-2,2-dimethylpropanoic acid]: on D2, the pKi is less than 4.30. In addition, the “T1/2 (h), projected human half-life” value in data set [1] (one-compartmental model, T1/2=0.693×(predicted Vd/predicted CL)) was 4 to 8 h. Also, the “CL (mL/min/kg), projected human clearance” value in data set [1] (single species scaling from monkey clearance) came out at 1.3 mL/min/kg.

Source of the values: patent US11046651B2, “Piperazine substituted azapine derivatives and uses thereof” (Alairion, Inc., priority 2019, dated 2021).
